Laboratory results: patent US20250230193A1, “CYCLIC COMPOUND HAVING SELECTIVE KRAS INHIBITORY EFFECT ON HRAS AND NRAS” (CHUGAI SEIYAKU KABUSHIKI KAISHA, priority 2022, published 2025)

Legend:
[1] = system: human lung cancer strain NCI-H441; assay: cells; details: NCI-H441, 96 h, read-out: NCI-H441 IC50 (nM)
[2] = target: GDP-bound HRAS wild-type protein (Homo sapiens, UniProt P01112); assay: Binding to HRAS by surface plasmon resonance (SPR), Single Cycle Kinetics; details: SPR; for HRAS/KRAS (ratio of KD value with respect to GDP-bound HRAS wild-type protein to KD value with respect to KRAS): GDP-bound wild-type proteins
Chain of GDP-bound HRAS wild-type protein (P01112 whole entry): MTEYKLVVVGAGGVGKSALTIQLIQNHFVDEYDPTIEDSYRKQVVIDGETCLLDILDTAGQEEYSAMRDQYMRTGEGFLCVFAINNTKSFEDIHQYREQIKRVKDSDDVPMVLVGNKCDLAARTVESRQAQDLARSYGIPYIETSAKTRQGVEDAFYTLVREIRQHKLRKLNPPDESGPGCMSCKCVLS

[3] = target: GDP-bound NRAS wild-type protein (Homo sapiens, UniProt P01111); assay: Binding to NRAS by surface plasmon resonance (SPR), Single Cycle Kinetics; details: KD ratio NRAS/KRAS, SPR, GDP-bound wild-type proteins
Chain of GDP-bound NRAS wild-type protein (P01111 whole entry): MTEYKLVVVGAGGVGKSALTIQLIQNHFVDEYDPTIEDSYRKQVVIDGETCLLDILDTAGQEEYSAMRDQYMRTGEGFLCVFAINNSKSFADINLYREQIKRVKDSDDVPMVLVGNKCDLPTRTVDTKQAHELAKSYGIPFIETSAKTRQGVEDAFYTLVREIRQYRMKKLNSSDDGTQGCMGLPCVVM

| SMILES | IC50 [1] [nM] | HRAS/KRAS (ratio of KD value for GDP-bound HRAS wild-type protein to KD value for KRAS) ([2]; KD ratio class) | NRAS/KRAS (ratio of KD value with respect to GDP-bound NRAS wild-type protein to KD value with respect to KRAS) [3] | HRAS/KRAS (ratio of KD value with respect to GDP-bound HRAS wild-type protein to KD value with respect to KRAS) [2] |
| --- | --- | --- | --- | --- |
| CCO[C@@H]1C[C@H]2C(=O)NC3(CCC3)C(=O)N(C)[C@@H](C(CC)CC)C(=O)N(C)[C@H](C)CC(=O)N(C)[C@@H](CC3CCCC3)C(=O)N[C@@H]([C@@H](C)CC)C(=O)N(C)CC(=O)N(C)[C@H]3C/C=C\CCN(C3=O)[C@@H](Cc3ccc(F)cc3)C(=O)N(C)CC(=O)N[C@@H](CCc3cc(F)c(C(F)(F)F)c(F)c3)C(=O)N2C1 [PP1523] | 320 | – | – | – |
| CCO[C@@H]1C[C@H]2C(=O)NC3(CCC3)C(=O)N(C)[C@@H](C(CC)CC)C(=O)N3CCC[C@@H]3CC(=O)N(C)[C@@H](CC)C(=O)N[C@@H]([C@@H](C)CC)C(=O)N(C)CC(=O)N(C)[C@H]3C/C=C\CCN(C3=O)[C@@H](Cc3ccc(C(F)(F)F)cc3)C(=O)N(C)CC(=O)N[C@@H](CCc3cc(F)c(C(F)(F)F)c(F)c3)C(=O)N2C1 [PP1607] | 39.3 | A (a compound having 10 or more and less than 20 is denoted as A) | – | – |
| CCC[C@H]1C(=O)N[C@@H]([C@@H](C)CC)C(=O)N2CCC[C@H]2C(=O)N(C)[C@H]2C/C=C\CCN(C2=O)[C@@H](Cc2ccc(C)cc2)C(=O)N(C)CC(=O)N[C@@H](CCc2cc(F)c(C(F)(F)F)c(F)c2)C(=O)N2C[C@H](OCC)C[C@H]2C(=O)N(C)C2(CCC2)C(=O)N(C)[C@@H](C2CCCC2)C(=O)N(C)[C@H](C(=O)N2CCCC2)CC(=O)N1C [PP3117, (1S,4S,10S,13S,17S,20S,26S,28R,32S,38S,42Z)-20-cyclopentyl-32-[2-[3,5-difluoro-4-(trifluoromethyl)phenyl]ethyl]-28-ethoxy-2,14,18,21,24,36-hexamethyl-10-[(1S)-1-methylpropyl]-13-propyl-38-(p-tolylmethyl)-17-(pyrrolidine-1-carbonyl)spiro[2,8,11,14,18,21,24,30,33,36,39-undecazatetracyclo[37.5.1.0^4,8.0^26,30]pentatetracont-42-ene-23,1′-cyclobutane]-3,9,12,15,19,22,25,31,34,37,45-undecone] | – | – | A (a compound having 10 or more and less than 20 is denoted as A) | A (a compound having 10 or more and less than 20 is denoted as A) |
| CCC[C@H]1C(=O)N[C@@H]([C@@H](C)CC)C(=O)N(C)CC(=O)N(C)[C@H]2C/C=C\CCN(C2=O)[C@@H](Cc2ccc(C(F)(F)F)cc2)C(=O)N(C)CC(=O)N[C@@H](CCc2cc(F)c(C(F)(F)F)c(F)c2)C(=O)N2C[C@H](OCC)C[C@H]2C(=O)N(C)C2(CCC2)C(=O)N(C)[C@@H](C2CCCC2)C(=O)N(C)[C@H](C(=O)N2CCCCC2)CC(=O)N1C [PP3118, (2S,8S,12R,14S,20S,23S,27S,30S,36S,38Z)-20-cyclopentyl-8-[2-[3,5-difluoro-4-(trifluoromethyl)phenyl]ethyl]-12-ethoxy-4,16,19,22,26,32,35-heptamethyl-30-[(1S)-1-methylpropyl]-23-(piperidine-1-carbonyl)-27-propyl-2-[[4-(trifluoromethyl)phenyl]methyl]spiro[1,4,7,10,16,19,22,26,29,32,35-undecazatricyclo[34.5.1.0^10,14]dotetracont-38-ene-17,1′-cyclobutane]-3,6,9,15,18,21,25,28,31,34,42-undecone] | – | – | A (a compound having 10 or more and less than 20 is denoted as A) | B (a compound having 3 or more and less than 10 is denoted as B) |
| CCC[C@H]1C(=O)N[C@@H]([C@@H](C)CC)C(=O)N(C)CC(=O)N(C)[C@H]2C/C=C\CCN(C2=O)[C@@H](Cc2ccc(C)cc2)C(=O)N(C)CC(=O)N[C@@H](CCc2cc(F)c(C(F)(F)F)c(F)c2)C(=O)N2C[C@H](OCC)C[C@H]2C(=O)N(C)C2(CCC2)C(=O)N(C)[C@@H](C2CCCC2)C(=O)N(C)[C@H](C(=O)N2CCCCC2)CC(=O)N1C [PP3119, (2S,8S,12R,14S,20S,23S,27S,30S,36S,38Z)-20-cyclopentyl-8-[2-[3,5-difluoro-4-(trifluoromethyl)phenyl]ethyl]-12-ethoxy-4,16,19,22,26,32,35-heptamethyl-30-[(1S)-1-methylpropyl]-23-(piperidine-1-carbonyl)-27-propyl-2-(p-tolylmethyl)spiro[1,4,7,10,16,19,22,26,29,32,35-undecazatricyclo[34.5.1.0^10,14]dotetracont-38-ene-17,1′-cyclobutane]-3,6,9,15,18,21,25,28,31,34,42-undecone] | – | – | A (a compound having 10 or more and less than 20 is denoted as A) | A (a compound having 10 or more and less than 20 is denoted as A) |
| CCC[C@H]1C(=O)N[C@@H]([C@@H](C)CC)C(=O)N(C)CC(=O)N(C)[C@H]2C/C=C\CCN(C2=O)[C@@H](Cc2ccc(C(F)(F)F)cc2)C(=O)N(C)CC(=O)N[C@@H](CCc2cc(F)c(C(F)(F)F)c(F)c2)C(=O)N2C[C@H](OCC)C[C@H]2C(=O)N(C)C2(CCC2)C(=O)N(C)[C@@H](C2CCCC2)C(=O)N(C)[C@H](C(=O)N2CCCC2)CC(=O)N1C [PP3120, (2S,8S,12R,14S,20S,23S,27S,30S,36S,38Z)-20-cyclopentyl-8-[2-[3,5-difluoro-4-(trifluoromethyl)phenyl]ethyl]-12-ethoxy-4,16,19,22,26,32,35-heptamethyl-30-[(1S)-1-methylpropyl]-27-propyl-23-(pyrrolidine-1-carbonyl)-2-[[4-(trifluoromethyl)phenyl]methyl]spiro[1,4,7,10,16,19,22,26,29,32,35-undecazatricyclo[34.5.1.0^10,14]dotetracont-38-ene-17,1′-cyclobutane]-3,6,9,15,18,21,25,28,31,34,42-undecone] | – | – | AA (a compound having 20 or more is denoted as AA) | A (a compound having 10 or more and less than 20 is denoted as A) |
| CCC[C@H]1C(=O)N[C@@H]([C@@H](C)CC)C(=O)N(C)CC(=O)N(C)[C@H]2C/C=C\CCN(C2=O)[C@@H](Cc2ccc(C)cc2)C(=O)N(C)CC(=O)N[C@@H](CCc2cc(F)c(C(F)(F)F)c(F)c2)C(=O)N2C[C@H](OCC)C[C@H]2C(=O)N(C)C2(CCC2)C(=O)N(C)[C@@H](C2CCCC2)C(=O)N(C)[C@H](C(=O)N2CCCC2)CC(=O)N1C [PP3121, (2S,8S,12R,14S,20S,23S,27S,30S,36S,38Z)-20-cyclopentyl-8-[2-[3,5-difluoro-4-(trifluoromethyl)phenyl]ethyl]-12-ethoxy-4,16,19,22,26,32,35-heptamethyl-30-[(1S)-1-methylpropyl]-27-propyl-2-(p-tolylmethyl)-23-(pyrrolidine-1-carbonyl)spiro[1,4,7,10,16,19,22,26,29,32,35-undecazatricyclo[34.5.1.0^10,14]dotetracont-38-ene-17,1′-cyclobutane]-3,6,9,15,18,21,25,28,31,34,42-undecone] | – | – | A (a compound having 10 or more and less than 20 is denoted as A) | A (a compound having 10 or more and less than 20 is denoted as A) |
